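The compound was tested at five concentrations on cells cultured in 96-well plates, with a 48-hour exposure period. Abbreviation: GI50, concentration required for 50% inhibition of growth. TGI marks complete inhibition of growth.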
Columns and labels:
Assay in all cases: NCI anticancer screen, dose series, 48 h
[1] = tested on: IGROV1 ovarian
[2] = tested on: NCI-H460 lung
[3] = tested on: SK-MEL-5 melanoma
[4] = tested on: SNB-75 CNS
[5] = tested on: HOP-92 NSCLC
[6] = tested on: CAKI-1 renal
[7] = tested on: NCI/ADR-RES ovarian
[8] = tested on: NCI-H226 lung
[9] = tested on: HOP-62 NSCLC
[10] = tested on: HCC-2998 colon
[11] = tested on: SN12C renal
[12] = tested on: UACC-257 melanoma
[13] = tested on: MCF7 breast
[14] = tested on: K-562 leukemia
[15] = tested on: TK-10 renal
[16] = tested on: SF-295 CNS
[17] = tested on: MOLT-4 leukemia
[18] = tested on: OVCAR-3 ovarian
[19] = tested on: SF-268 CNS
[20] = tested on: PC-3 prostate
[21] = tested on: 786-0 renal
[22] = tested on: HCT-116 colon
[23] = tested on: RXF 393 renal
[24] = tested on: KM12 colon
[25] = tested on: UACC-62 melanoma
[26] = tested on: EKVX NSCLC
[27] = tested on: SNB-19 CNS
[28] = tested on: UO-31 renal
[29] = tested on: HCT-15 colon
[30] = tested on: HS 578T breast
[31] = tested on: M14 melanoma
[32] = tested on: SW-620 colon
[33] = tested on: OVCAR-4 ovarian
[34] = tested on: LOX IMVI melanoma
[35] = tested on: BT-549 breast
[36] = tested on: ACHN renal
[37] = tested on: SK-OV-3 ovarian
[38] = tested on: U251 CNS
[39] = tested on: MDA-MB-231 breast
[40] = tested on: CCRF-CEM leukemia
[41] = tested on: A549 NSCLC
[42] = tested on: COLO 205 colon
[43] = tested on: DU-145 prostate
[44] = tested on: NCI-H23 lung
[45] = tested on: SK-MEL-28 melanoma
[46] = tested on: MALME-3M melanoma
[47] = tested on: SR leukemia
[48] = tested on: MDA-MB-435
[49] = tested on: OVCAR-8 ovarian
[50] = tested on: OVCAR-5 ovarian
[51] = tested on: SF-539 CNS
[52] = tested on: NCI-H522 lung
[53] = tested on: A498 renal
[54] = tested on: RPMI-8226 leukemia
[55] = tested on: HT29 colon
[56] = tested on: T-47D breast
[57] = tested on: HL-60(TB) leukemia
[58] = tested on: SK-MEL-2 melanoma

## Clc1nc(Cl)c2ncn(CCOCCn3cnc4c(Cl)nc(Cl)nc43)c2n1
[1]
  GI50: 207 nM
  TGI: 408 nM
[2]
  GI50: 217 nM
  TGI: 463 nM
[3]
  GI50: 370 nM
  TGI: 1380 nM
[4]
  GI50: 181 nM
  TGI: 342 nM
[5]
  GI50: 200 nM
  TGI: 687 nM
[6]
  GI50: 197 nM
  TGI: 453 nM
[7]
  GI50: 216 nM
  TGI: 424 nM
[8]
  GI50: 1560 nM
  TGI: 3200 nM
[9]
  GI50: 202 nM
  TGI: 360 nM
[10]
  GI50: 213 nM
  TGI: 382 nM
[11]
  GI50: 214 nM
  TGI: 433 nM
[12]
  GI50: 235 nM
  TGI: 488 nM
[13]
  GI50: 192 nM
  TGI: 455 nM
[14]
  GI50: 361 nM
  TGI: > 100000 nM
[15]
  GI50: 772 nM
  TGI: 1710 nM
[16]
  GI50: 1330 nM
  TGI: 2830 nM
[17]
  GI50: 336 nM
  TGI: > 100000 nM
[18]
  GI50: 199 nM
  TGI: 346 nM
[19]
  GI50: 194 nM
  TGI: 347 nM
[20]
  GI50: 188 nM
  TGI: 365 nM
[21]
  GI50: 325 nM
  TGI: 935 nM
[22]
  GI50: 182 nM
  TGI: 346 nM
[23]
  GI50: 222 nM
  TGI: 474 nM
[24]
  GI50: 236 nM
  TGI: 491 nM
[25]
  GI50: 198 nM
  TGI: 412 nM
[26]
  GI50: 1310 nM
  TGI: 2770 nM
[27]
  GI50: 448 nM
  TGI: 968 nM
[28]
  GI50: 633 nM
  TGI: 1250 nM
[29]
  GI50: 185 nM
  TGI: 365 nM
[30]
  GI50: 289 nM
  TGI: 693 nM
[31]
  GI50: 287 nM
  TGI: 817 nM
[32]
  GI50: 212 nM
  TGI: 440 nM
[33]
  GI50: 283 nM
  TGI: 707 nM
[34]
  GI50: 185 nM
  TGI: 350 nM
[35]
  GI50: 208 nM
  TGI: 392 nM
[36]
  GI50: 328 nM
  TGI: 811 nM
[37]
  GI50: 1440 nM
  TGI: 2770 nM
[38]
  GI50: 174 nM
  TGI: 313 nM
[39]
  GI50: 187 nM
  TGI: 355 nM
[40]
  GI50: 226 nM
[41]
  GI50: 312 nM
  TGI: 1300 nM
[42]
  GI50: 204 nM
  TGI: 374 nM
[43]
  GI50: 196 nM
  TGI: 343 nM
[44]
  GI50: 204 nM
  TGI: 401 nM
[45]
  GI50: 199 nM
  TGI: 362 nM
[46]
  GI50: 221 nM
  TGI: 464 nM
[47]
  GI50: 241 nM
  TGI: 54400 nM
[48]
  GI50: 204 nM
  TGI: 466 nM
[49]
  GI50: 228 nM
  TGI: 486 nM
[50]
  GI50: 227 nM
  TGI: 510 nM
[51]
  GI50: 170 nM
  TGI: 381 nM
[52]
  GI50: 684 nM
  TGI: 2220 nM
[53]
  GI50: 1720 nM
  TGI: 3200 nM

## CCN(Cc1ccc(F)cc1)c1ccc(CO)c(C(F)(F)F)c1
[1]
  GI50: 1560 nM
  TGI: 11600 nM
[2]
  GI50: 3430 nM
  TGI: 15700 nM
[3]
  GI50: 13900 nM
  TGI: 26800 nM
[4]
  GI50: 14300 nM
  TGI: 30600 nM
[5]
  GI50: 2290 nM
  TGI: 17800 nM
[6]
  GI50: 13900 nM
  TGI: 28700 nM
[7]
  GI50: 13700 nM
  TGI: 28000 nM
[9]
  GI50: 9230 nM
  TGI: 21200 nM
[10]
  GI50: 14900 nM
  TGI: 28200 nM
[11]
  GI50: 12900 nM
  TGI: 25500 nM
[12]
  GI50: 1760 nM
  TGI: 7010 nM
[13]
  GI50: 5770 nM
  TGI: 19200 nM
[14]
  GI50: 10400 nM
  TGI: 52100 nM
[16]
  GI50: 3300 nM
  TGI: 16500 nM
[17]
  GI50: 15200 nM
  TGI: 43500 nM
[54]
  GI50: 11700 nM
  TGI: 45200 nM
[18]
  GI50: 6910 nM
  TGI: 19600 nM
[19]
  GI50: 15500 nM
  TGI: 31300 nM
[20]
  GI50: 12100 nM
  TGI: 25700 nM
[55]
  GI50: 14300 nM
  TGI: 31200 nM
[21]
  GI50: 12400 nM
  TGI: 26200 nM
[22]
  GI50: 1540 nM
  TGI: 12800 nM
[23]
  GI50: 14900 nM
  TGI: 28300 nM
[24]
  GI50: 15200 nM
  TGI: 29300 nM
[25]
  GI50: 1410 nM
  TGI: 7330 nM
[27]
  GI50: 15300 nM
  TGI: 28600 nM
[28]
  GI50: 12500 nM
  TGI: 25000 nM
[29]
  GI50: 14400 nM
  TGI: 29400 nM
[30]
  GI50: 14100 nM
  TGI: 40300 nM
[31]
  GI50: 15100 nM
  TGI: 30900 nM
[32]
  GI50: 11200 nM
  TGI: 23500 nM
[56]
  GI50: 1840 nM
  TGI: 10400 nM
[33]
  GI50: 1790 nM
  TGI: 12800 nM
[34]
  GI50: 17500 nM
  TGI: 31300 nM
[35]
  GI50: 15100 nM
  TGI: 28300 nM
[36]
  GI50: 14600 nM
  TGI: 27800 nM
[37]
  GI50: 15800 nM
  TGI: 30800 nM
[38]
  GI50: 4100 nM
  TGI: 18400 nM
[39]
  GI50: 14300 nM
  TGI: 27300 nM
[40]
  GI50: 14700 nM
  TGI: 43700 nM
[41]
  GI50: 10900 nM
  TGI: 23500 nM
[42]
  GI50: 14400 nM
  TGI: 27500 nM
[43]
  GI50: 16700 nM
  TGI: 31800 nM
[44]
  GI50: 11100 nM
  TGI: 24200 nM
[45]
  GI50: 14100 nM
  TGI: 27100 nM
[46]
  GI50: 15500 nM
  TGI: 30300 nM
[57]
  GI50: 15800 nM
  TGI: 41900 nM
[48]
  GI50: 16000 nM
  TGI: 29400 nM
[58]
  GI50: 15100 nM
  TGI: 32500 nM
[49]
  GI50: 14300 nM
  TGI: 27300 nM
[50]
  GI50: 1280 nM
  TGI: 5000 nM
[51]
  GI50: 15500 nM
  TGI: 28900 nM
[52]
  GI50: 12500 nM
  TGI: 26900 nM
[53]
  GI50: 122 nM
  TGI: 287 nM

Reference: PubChem BioAssay (NCI)
